Laboratory results as given in publication PMC11011439, “Influence of Molecular Design on the Tumor Targeting and Biodistribution of PSMA-Binding Tracers Labeled with Technetium-99m” (International Journal of Molecular Sciences, 2024).
Marks after values point to notes of the source that are not given here.

What was measured:
[1] = Stability of the [99mTc]Tc-maG3 complex in PBS and under cysteine challenge (radio-HPLC); assay type: physicochemical; conditions: room temperature, 1 h
Description: The iTLC data were cross-validated using radio-HPLC analysis, performed using a Hitachi Chromaster HPLC system with a radioactivity detector and Phenomenex Luna® C18 column (100 Å; 150 × 4.6 mm; 5 µm) at room temperature (20 °C), in the following conditions: solvent A: 0.1% trifluoroacetic acid (TFA) in H2O, solvent B: 0.1% TFA in acetonitrile, flow rate: 1 mL/min. For identity and purity analysis of [^99mTc]Tc-BQ0411 and [^99mTc]Tc-BQ0412, the method with a gradient from 5 to 60% solvent B over 20 min was used.
To evaluate the chemical stability of the [^99mTc]Tc-maG3 complex, fractions of radiolabeled conjugates (10 µL, 0.25 µg) were incubated with a 300× molar excess of cysteine or with PBS at room temperature for 1 h. The test was run in triplicate.

[2] = Octanol/water distribution coefficient (LogD); assay type: physicochemical; conditions: n-octanol / Milli-Q water
Description: The LogD was determined experimentally based on the procedure described earlier. Briefly, the radiolabeled compound of interest was added to a LoBind Eppendorf tube (Eppendorf, Hamburg, Germany) containing Milli-Q water (500 μL) and n-octanol (500 μL), and the mixture was vortexed and centrifuged. Thereafter, three fractions from each phase were collected and the activity was measured using a gamma counter. The LogD was calculated by dividing the average activity measured in octanol by the average activity measured in water.

PSMA [3] = target: T1, PSMA (Homo sapiens, UniProt Q04609); assay: In vitro binding specificity (saturation with non-labeled PSMA-11) on PC3-pip cells; conditions: 2 nM tracer, 250-fold molar excess of PSMA-11, 1 h, 37 °C
T1 construct: expressed in transfected cells; host or cells: PC3-pip cells (from Prof. Martin G. Pomper, Johns Hopkins University)
Description: For the in vitro binding specificity test, approximately 8 × 10^5 of PC3-pip cells per well were seeded in 6-well plates 24 h before the experiment. Cells in three control wells were pre-saturated with a 250-fold excess of non-labeled PSMA-11 15 min before the addition of radiotracers, while the second set was treated with complete media. After 15 min of incubation at room temperature, [^99mTc]Tc-labeled radioligands were added to all wells to reach a concentration of 2 nM. After one hour of incubation at 37 °C, the cells were washed with PBS solution, detached, and collected. Cell-associated activity was measured using a gamma counter and presented as the percentage of added activity.

PSMA [4] = target: T1, PSMA; assay: Real-time binding kinetics on living PC3-pip cells (LigandTracer Yellow); conditions: 5 nM tracer, 1:2 interaction model
Description: The binding kinetics of [^99mTc]Tc-labeled BQ0411, BQ0412, and BQ0413 were measured in real time using LigandTracer Yellow Instruments (Ridgeview Instruments AB, Uppsala, Sweden) on PC3-pip cells, as described earlier. The activity binding was recorded at 5 nM on the radiolabeled tracers for 150 min. After measuring the binding kinetics, the medium containing the labeled tracer was replaced with fresh medium, and the dissociation was monitored over 7 h. […]

PC3-pip cells = assay: Cellular processing (internalization) during continuous incubation; assay type: cell-based; conditions: 2 nM, 37 °C
Description: To evaluate the cellular processing of [^99mTc]Tc-labeled BQ0411 and BQ0412, PC3-pip cells were incubated with the radiolabeled tracer (2 nM), and at predetermined time points (1, 2, 4, and 8 h), cells were treated with 0.5 mL of 4 M urea solution in a 0.2 M glycine buffer, pH 2.5, for 5 min on ice. After that, the acidic supernatant was collected, and this fraction was considered to be the membrane-bound activity. To lyse the cells, 0.5 mL of 1 M sodium hydroxide solution was added and incubated at 37 °C for at least 20 min. The alkaline-containing solution was collected, and the basic fraction was considered to be the internalized activity.

[5] = Biodistribution in NMRI mice; assay type: in vivo; conditions: for activity in carcass / activity in intestines with content / uptake in blood / uptake in kidney / uptake in liver / uptake in lung / uptake in salivary glands / uptake in spleen / uptake in stomach: 40 pmol/mouse iv; for washout of activity from kidneys: 24 h pi compared to 3 h pi
Description: Four NMRI mice were intravenously injected with 40 pmol of the radiotracer (60 kBq, the mass of the injected compound was adjusted with an unlabeled tracer). The mice were euthanized with a lethal intraperitoneal injection of ketamine/xylazine, followed by exsanguination at 3 and 24 h post-injection (pi). The organs of interest were collected, weighed, and measured for their activity content using a gamma counter. The uptake activity in organs was calculated as the percentage of injected activity per gram (%IA/g) for the blood, salivary glands, lungs, liver, spleen, stomach, and kidneys and as %IA for the remaining carcass and the rest of the intestines with content.

[6] = system: PSMA-expressing prostate cancer xenografts (PC3-pip); assay: Biodistribution and tumor targeting in PC3-pip tumor-bearing mice; assay type: in vivo, BALB/c nu/nu mice; conditions: 3 h pi; for activity in carcass / activity in intestines with content / uptake in blood / uptake in bone / uptake in kidney / uptake in liver / uptake in lung / uptake in muscle / uptake in pancreas / uptake in salivary glands / uptake in small intestine / uptake in spleen / uptake in stomach / uptake in tumor: 5 nmol/mouse iv
Description: PSMA-expressing prostate cancer xenografts were implanted in BALB/c nu/nu mice by subcutaneous injection of PC3-pip cell suspension in PBS (10^7 cells/animal in 100 µL). The average tumor weight was 0.3 ± 0.2 g at the time of the experiment. Four mice per data point were used. Mice were intravenously injected with 5 nmol of the radiotracer (60 kBq, the mass of the injected compound was adjusted with an unlabeled tracer). The mice were euthanized 3 h pi, and the samples were treated as described above.

T1 sequence (Q04609 whole entry): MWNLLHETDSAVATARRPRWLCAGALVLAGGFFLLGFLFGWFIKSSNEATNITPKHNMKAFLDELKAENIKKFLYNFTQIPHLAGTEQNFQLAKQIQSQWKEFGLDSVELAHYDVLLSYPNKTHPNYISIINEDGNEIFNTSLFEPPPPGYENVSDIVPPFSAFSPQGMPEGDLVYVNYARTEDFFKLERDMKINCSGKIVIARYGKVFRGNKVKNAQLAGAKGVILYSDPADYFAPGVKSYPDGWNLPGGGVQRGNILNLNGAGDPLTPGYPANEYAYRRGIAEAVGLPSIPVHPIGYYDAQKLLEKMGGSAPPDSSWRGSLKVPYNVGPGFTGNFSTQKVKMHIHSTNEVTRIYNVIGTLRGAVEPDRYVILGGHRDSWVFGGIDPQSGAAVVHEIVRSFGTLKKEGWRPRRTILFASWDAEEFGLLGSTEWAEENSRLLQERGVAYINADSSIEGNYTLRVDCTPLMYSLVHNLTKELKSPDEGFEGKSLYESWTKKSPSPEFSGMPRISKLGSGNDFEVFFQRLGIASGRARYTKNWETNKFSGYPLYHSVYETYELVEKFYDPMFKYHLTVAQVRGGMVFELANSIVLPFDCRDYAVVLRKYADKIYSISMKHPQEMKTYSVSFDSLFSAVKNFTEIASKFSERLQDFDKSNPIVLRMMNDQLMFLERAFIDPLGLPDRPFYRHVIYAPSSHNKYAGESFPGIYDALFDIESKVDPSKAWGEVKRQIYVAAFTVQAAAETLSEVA

## CC(=O)NC(CCCCNC(=O)CNC(=O)C[N]1C(=O)C[N]2C(=O)C[N]3C(=O)C[S][99Tc-]132=[O])C(=O)NCCCCCCCC(=O)NC(Cc1ccc(O)cc1)C(=O)NC(Cc1ccc2ccccc2c1)C(=O)NCCCCC(NC(=O)NC(CCC(=O)O)C(=O)O)C(=O)O (stereo not drawn) [[^99mTc]Tc-BQ0411]
[1]; 300-fold molar excess of cysteine
  stability in the presence of cysteine: stable
[1]; PBS
  stability during incubation in PBS: stable
[2]
  logD (octanol–water distribution coefficient): −2.3 ± 0.1
PSMA [3]
  binding to PC3-pip cells after pre-treatment with excess non-labeled PSMA-11: significantly (p ˂ 0.0001) decreased
PSMA [4]
  ka1: 24000 M⁻¹ s⁻¹
  ka2: 67000 M⁻¹ s⁻¹
  kd1: 1.4e-05 s⁻¹
  kd2: 2e-05 s⁻¹
PC3-pip cells; 4 h of continuous incubation
  internalized activity (of cell-associated activity): 44 ± 1%
PC3-pip cells; after 4 h (8 h of continuous incubation)
  internalized activity (of cell-associated activity): 44.2 ± 0.7%
[5]; 3 h pi
  activity in carcass: 6.4 ± 0.8 *^,a,b %IA/sample
  activity in intestines with content: 43 ± 6 *^,a,b %IA/sample
  uptake in blood: 1.4 ± 0.7 *^,a %IA/g
  uptake in kidney: 129 ± 22 *^,a,b %IA/g
  uptake in liver: 0.8 ± 0.1 *^,a %IA/g
  uptake in lung: 0.8 ± 0.1 *^,a %IA/g
  uptake in salivary glands: 0.5 ± 0.1 *^,a,b %IA/g
  uptake in spleen: 0.38 ± 0.07 *^,b %IA/g
  uptake in stomach: 0.42 ± 0.07 *^,b %IA/g
[5]; 24 h pi
  activity in carcass: 0.21 ± 0.01 ^b %IA/sample
  activity in intestines with content: 0.3 ± 0.2 %IA/sample
  uptake in blood: 0.027 ± 0.002 ^b %IA/g
  uptake in kidney: 3.9 ± 0.6 ^b %IA/g
  uptake in liver: 0.032 ± 0.004 ^b %IA/g
  uptake in lung: 0.019 ± 0.005 ^b %IA/g
  uptake in salivary glands: 0.022 ± 0.005 ^b %IA/g
  uptake in spleen: 0.015 ± 0.002 %IA/g
  uptake in stomach: 0.06 ± 0.02 ^b %IA/g
[5]; 3 h pi, excluding activity in the intestines with content
  activity remaining in the body: 40–50 % from injected
[5]
  washout of activity from kidneys: 97%
[6]
  activity in carcass: 3.5 ± 0.9 %IA/sample
  activity in intestines with content: 44 ± 5 ^a,b %IA/sample
  uptake in blood: 1.0 ± 0.4 ^b %IA/g
  uptake in bone: 0.20 ± 0.06 %IA/g
  uptake in kidney: 13 ± 6 %IA/g
  uptake in liver: 1.9 ± 0.7 ^a,b %IA/g
  uptake in lung: 0.9 ± 0.3 ^a,b %IA/g
  uptake in muscle: 0.17 ± 0.05 %IA/g
  uptake in pancreas: 0.2 ± 0.1 %IA/g
  uptake in salivary glands: 0.4 ± 0.1 %IA/g
  uptake in small intestine: 0.9 ± 0.4 %IA/g
  uptake in spleen: 1.0 ± 0.2 %IA/g
  uptake in stomach: 0.4 ± 0.2 %IA/g
  uptake in tumor: 27 ± 4 ^a,b %IA/g
  activity uptake in the gastrointestinal tract (with content): over 40 %IA
  tumor uptake, fold higher compared with [99mTc]Tc-BQ0412 and [99mTc]Tc-BQ0413: 1.6 fold
[6]; 5 nmol/mouse
  tumor-to-blood ratio: 32 ± 11 ^b
  tumor-to-bone ratio: 146 ± 57
  tumor-to-kidney ratio: 2.3 ± 0.8 ^a
  tumor-to-liver ratio: 16 ± 7 ^a,b
  tumor-to-lung ratio: 33 ± 9 ^b
  tumor-to-muscle ratio: 173 ± 47 ^b
  tumor-to-pancreas ratio: 121 ± 46
  tumor-to-salivary ratio: 69 ± 16 ^b
  tumor-to-small intestine ratio: 35 ± 18 ^b
  tumor-to-spleen ratio: 24 ± 7
  tumor-to-stomach ratio: 86 ± 43 ^b

## CC(=O)N[C@@H](CCCCNC(=O)CNC(=O)C(CCC(=O)O)[N]1C(=O)C(CCC(=O)O)[N]2C(=O)C(CCC(=O)O)[N]3C(=O)C[S][99Tc-]312=[O])C(=O)NCCCCCCCC(=O)N[C@@H](Cc1ccc(O)cc1)C(=O)N[C@@H](Cc1ccc2ccccc2c1)C(=O)NCCCC[C@H](NC(=O)N[C@@H](CCC(=O)O)C(=O)O)C(=O)O (stereo partly drawn) [[^99mTc]Tc-BQ0413]
[2]
  logD (octanol–water distribution coefficient): −2.5 ± 0.1
PSMA [4]
  ka1: 33000 M⁻¹ s⁻¹
  ka2: 2.9e+08 M⁻¹ s⁻¹
  kd1: 2.9e-06 s⁻¹
  kd2: 2.3e-09 s⁻¹
[5]; 3 h pi
  activity in carcass: 9 ± 1 %IA/sample
  activity in intestines with content: 3.8 ± 0.4 %IA/sample
  uptake in blood: 0.5 ± 0.1 %IA/g
  uptake in kidney: 242 ± 43 %IA/g
  uptake in liver: 0.7 ± 0.1 %IA/g
  uptake in lung: 1.0 ± 0.3 %IA/g
  uptake in salivary glands: 3.0 ± 0.1 %IA/g
  uptake in spleen: 1.2 ± 0.3 %IA/g
  uptake in stomach: 3.1 ± 0.5 %IA/g
[5]; 24 h pi
  activity in carcass: 1.4 ± 0.2 %IA/sample
  activity in intestines with content: 0.5 ± 0.2 %IA/sample
  uptake in blood: 0.05 ± 0.01 %IA/g
  uptake in kidney: 56 ± 14 %IA/g
  uptake in liver: 0.21 ± 0.03 %IA/g
  uptake in lung: 0.18 ± 0.03 %IA/g
  uptake in salivary glands: 0.30 ± 0.01 %IA/g
  uptake in spleen: 0.3 ± 0.2 %IA/g
  uptake in stomach: 1.0 ± 0.5 %IA/g
[5]
  washout of activity from kidneys: 77%
[6]
  activity in carcass: 1.7 ± 0.3 %IA/sample
  activity in intestines with content: 1.7 ± 0.2 %IA/sample
  uptake in blood: 0.17 ± 0.04 %IA/g
  uptake in bone: 0.2 ± 0.1 %IA/g
  uptake in kidney: 9 ± 2 %IA/g
  uptake in liver: 0.3 ± 0.1 %IA/g
  uptake in lung: 0.3 ± 0.1 %IA/g
  uptake in muscle: 0.06 ± 0.02 %IA/g
  uptake in pancreas: 0.13 ± 0.02 %IA/g
  uptake in salivary glands: 0.5 ± 0.1 %IA/g
  uptake in small intestine: 0.2 ± 0.1 %IA/g
  uptake in spleen: 0.9 ± 0.5 %IA/g
  uptake in stomach: 0.6 ± 0.2 %IA/g
  uptake in tumor: 17 ± 3 %IA/g
[6]; 5 nmol/mouse
  tumor-to-blood ratio: 94 ± 3
  tumor-to-bone ratio: 114 ± 29
  tumor-to-liver ratio: 48 ± 5
  tumor-to-lung ratio: 52 ± 8
  tumor-to-muscle ratio: 284 ± 19
  tumor-to-pancreas ratio: 137 ± 10
  tumor-to-salivary ratio: 31 ± 3
  tumor-to-small intestine ratio: 126 ± 57
  tumor-to-spleen ratio: 16 ± 4
  tumor-to-stomach ratio: 24 ± 2
